Results published in ChEMBL document CHEMBL4732202, “Identification and Profiling of a Novel Diazaspiro[3.4]octane Chemical Series Active against Multiple Stages of the Human Malaria Parasite Plasmodium falciparum and Optimization Efforts” (J Med Chem, 2021).

What was measured:
[1] = Half life in Balb/c mouse at 3 mg/kg, iv measured upto 24 hrs by LC-MS/MS analysis; type: ADME, organism-based; conditions: in vivo
[2] = Blood clearance in Balb/c mouse at 3 mg/kg, iv measured upto 24 hrs by LC-MS/MS analysis; type: ADME, organism-based; conditions: whole blood
[3] = Volume of distribution in Balb/c mouse at 3 mg/kg, iv measured upto 24 hrs by LC-MS/MS analysis; type: ADME, organism-based; conditions: in vivo
[4] = AUC (0 to infinity) in Balb/c mouse at 3 mg/kg, iv measured upto 24 hrs by LC-MS/MS analysis; type: ADME, organism-based; set-up: route intravenous, dose 3 mg/kg, time <=24; conditions: in vivo
[5] = Oral bioavailability in Balb/c mouse at 10 mg/kg measured upto 24 hrs by LC-MS/MS analysis; type: ADME, organism-based; conditions: in vivo
[6] = Intrinsic clearance in Balb/c mouse at 3 mg/kg, iv measured upto 24 hrs by LC-MS/MS analysis; type: ADME, organism-based; conditions: in vivo
[7] = Unbound AUC in Balb/c mouse at 20 mg/kg, po measured upto 24 hrs by LC-MS/MS analysis; type: ADME, organism-based; conditions: in vivo
[8] = Unbound average drug concentration in Balb/c mouse at 20 mg/kg, po measured upto 24 hrs by LC-MS/MS analysis; type: ADME, organism-based; conditions: in vivo
[9] = Half life in human liver microsomes at 0.1 uM in presence or absence of NADPH by LC-MS/MS analysis; type: ADME, Microsome
[10] = Half life in rat liver microsomes at 0.1 uM in presence or absence of NADPH by LC-MS/MS analysis; type: ADME, Microsome
[11] = Half life in mouse liver microsomes at 0.1 uM in presence or absence of NADPH by LC-MS/MS analysis; type: ADME, Microsome

Row | half-life at 0.1 µM [9] [min] | half-life at 0.1 µM [10] [min] | half-life at 0.1 µM [11] [min] | Structure (SMILES) | also measured
1 | – | – | – | O=C(Cc1ccc(O)cc1)N1CC(CNc2ccccc2)C2(C1)CN(c1ccc(F)cc1)C2 (stereo not drawn) | half-life [1]: 240 min; clearance [2]: 63 mL/min/kg; Vd [3]: 22 L/kg; AUC(0-inf) [4]: 1.82 µM·h; bioavailability [5]: 10%; CL [6]: 5042 mL/min/kg; fAUC [7]: 3 µmol·min/L; f(Cave) [8]: 2 nM
2 | 34 | 24 | 20 | N[C@H](Cc1ccc(O)cc1)C(=O)N1CC(CNc2ccc(F)cc2)C2(C1)CN(c1cc(F)cc(F)c1)C2 (mixture of isomers) | –
3 | 25 | 44 | 48 | N[C@@H](C(=O)N1CC(CNc2ccc(F)cc2)C2(C1)CN(c1cc(F)cc(F)c1)C2)c1ccc(O)cc1 (mixture of isomers) | –
4 | 150 | 150 | 150 | Nc1ccc(C[C@@H](N)C(=O)N2CC(CNc3ccc(F)cc3)C3(C2)CN(c2cc(F)cc(F)c2)C3)cc1 (mixture of isomers) | half-life [1]: 342 min; clearance [2]: 40.6 mL/min/kg; Vd [3]: 20.7 L/kg; AUC(0-inf) [4]: 2.48 µM·h; bioavailability [5]: 8%; CL [6]: 2959 mL/min/kg; fAUC [7]: 2 µmol·min/L; Cave [8]: 1 nM
5 | 6 | 6 | 7 | C[C@@H](C(=O)N1CC(CNc2ccc(F)cc2)C2(C1)CN(c1cc(F)cc(F)c1)C2)c1ccc(O)cc1 (mixture of isomers) | –
6 | 9 | 6.7 | 11 | O=C([C@@H](O)c1ccc(O)cc1)N1CC(CNc2ccc(F)cc2)C2(C1)CN(c1cc(F)cc(F)c1)C2 (mixture of isomers) | –
7 | 6 | 4 | 10 | C[C@H](C(=O)N1CC(CNc2ccc(F)cc2)C2(C1)CN(c1cc(F)cc(F)c1)C2)c1ccc(O)cc1 (mixture of isomers) | –
8 | 6.8 | 7.9 | 4.4 | O=C([C@H](O)c1ccc(O)cc1)N1CC(CNc2ccc(F)cc2)C2(C1)CN(c1cc(F)cc(F)c1)C2 (mixture of isomers) | –
9 | 150 | 150 | 150 | N[C@H](C(=O)N1CC(CNc2ccc(F)cc2)C2(C1)CN(c1cc(F)cc(F)c1)C2)c1ccc(O)cc1 (mixture of isomers; form 1) | half-life [1]: 480 min; clearance [2]: 33.7 mL/min/kg; Vd [3]: 23.5 L/kg; AUC(0-inf) [4]: 3 µM·h; bioavailability [5]: < 1%; CL [6]: 2155 mL/min/kg; fAUC [7]: 3 µmol·min/L; f(Cave) [8]: 2 nM
10 | 46 | 40 | 42 | O=C(Cc1cc(F)c(O)c(F)c1)N1CC(CNc2ccc(F)cc2)C2(C1)CN(c1ccc(F)cc1)C2 (racemic) | –
11 | 150 | 150 | 150 | O=C(CN1CCC(O)CC1)N1CC(CNc2ccc(F)cc2)C2(C1)CN(c1ccc(F)cc1)C2 (racemic) | –
12 | 17 | 14 | 13 | O=C(Cc1ccc(O)c(F)c1)N1CC(CNc2ccc(F)cc2)C2(C1)CN(c1ccc(F)cc1)C2 (racemic) | –
13 | 22 | 25 | 16 | O=C(Cc1ccc(O)c(Cl)c1)N1CC(CNc2ccc(F)cc2)C2(C1)CN(c1ccc(F)cc1)C2 (racemic) | –
14 | 18 | 7 | 16 | O=C(N1CC(CNc2ccc(F)cc2)C2(C1)CN(c1cc(F)cc(F)c1)C2)C(F)(F)c1ccc(O)c(C(F)(F)F)c1 (racemic) | –
15 | 64 | 68 | 67 | O=C(Cc1ncc(O)cn1)N1CC(CNc2ccc(F)cc2)C2(C1)CN(c1cc(F)cc(F)c1)C2 (racemic) | –
16 | 27 | 31 | 70 | N#Cc1cc(CC(=O)N2CC(CNc3ccc(F)cc3)C3(C2)CN(c2cc(F)cc(F)c2)C3)ccc1O (racemic) | –
17 | 23 | 11 | 12 | O=C(N1CC(CNc2ccc(F)cc2)C2(C1)CN(c1cc(F)cc(F)c1)C2)C(F)(F)c1ccc(O)cc1 (racemic) | –
18 | 11 | 8 | 21 | NC(=O)c1cc(CC(=O)N2CC(CNc3ccc(F)cc3)C3(C2)CN(c2cc(F)cc(F)c2)C3)ccc1O (racemic) | –
19 | 150 | 150 | 150 | O=C(Cc1cc[n+]([O-])cc1)N1CC(CNc2ccc(F)cc2)C2(C1)CN(c1cc(F)cc(F)c1)C2 (racemic) | –
20 | 7.6 | 7.6 | 6.6 | O=C(Cc1ccc(C(F)F)cc1)N1CC(CNc2ccc(F)cc2)C2(C1)CN(c1ccc(F)cc1)C2 (racemic) | –
21 | 12 | 20 | 17 | O=C(Cc1ccnc(O)c1)N1CC(CNc2ccc(F)cc2)C2(C1)CN(c1cc(F)cc(F)c1)C2 (racemic) | –
22 | 15 | 16 | 24 | O=C(Cc1ccc(O)c(C(F)(F)F)c1)N1CC(CNc2ccc(F)cc2)C2(C1)CN(c1cc(F)cc(F)c1)C2 (racemic) | –
23 | 21 | 52 | 17 | O=C(Cc1ccc(O)nc1)N1CC(CNc2ccc(F)cc2)C2(C1)CN(c1cc(F)cc(F)c1)C2 (racemic) | –
24 | 12 | 12 | 11 | O=C(Cc1ccc(O)cn1)N1CC(CNc2ccc(F)cc2)C2(C1)CN(c1cc(F)cc(F)c1)C2 (racemic) | –
25 | – | – | – | CC1(C)c2nc(-c3ccc(F)cc3)c(Nc3ccc(F)cc3)n2CCN1C(=O)CN [GANAPLACIDE] | clearance [2]: 37.8 mL/min/kg; bioavailability [5]: 74%; CL [6]: 548 mL/min/kg; fAUC [7]: 65.4 µmol·min/L; f(Cave) [8]: 45 nM
26 | – | – | – | CS(=O)(=O)c1ccc(-c2cnc(N)c(-c3ccc(C(F)(F)F)nc3)c2)cc1 [MMV-048] | clearance [2]: 3 mL/min/kg; bioavailability [5]: > 100%; CL [6]: 19 mL/min/kg; fAUC [7]: 4452 µmol·min/L; f(Cave) [8]: 3092 nM
